Several values for one entry are separate records, joined by “and”; a condition that tells them apart may be missing. Identical values can stand only once.
How the values were obtained:
phospho-Tyr627 GAB1 = test: Inhibition of GAB1 Y627 phosphorylation in T47D cells; format: cell-based, human; details: 20 µM, 4 hr, HGF stimulated
Method: For all biological assays, hit compounds were added at 20 µM concentration directly into the culture media of the cells for 4 hr following a 16 hr incubation of T47D cells without FBS. Cells were stimulated with HGF for 20 min at 50 ng/ml. Following this treatment, cells were lysed as previously published and equal amounts of total cell lysate were loaded on a pSer^312-IRS-1/Total IRS-1 Meso Scale Discovery plate as described by the manufacturer. The plate was read using a Sector Imager 2400A instrument (Meso Scale Discovery protein profiling system, Gaithersburg, MD). For the measurement of GAB1 phosphorylation, T47D cells were treated as for the phosphorylation of IRS1 evaluation. […] Each experiment was performed at least three times.

human IRS1 PH domain = target: T1, human IRS1 PH domain (Homo sapiens, UniProt P35568); test: SPR direct binding to IRS1 PH domain; details: for Kd: read-out: KD IRS1; for Exp. ΔGbind: IRS1, derived from experimental KD
T1 sequence (P35568 12-115 limits assumed): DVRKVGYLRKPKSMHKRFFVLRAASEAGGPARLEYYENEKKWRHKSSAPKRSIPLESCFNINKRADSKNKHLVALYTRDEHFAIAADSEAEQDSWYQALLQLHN
Method: (§3) Binding assays were performed using a Biacore 2000 instrument with the Biacore Control Software v3.2 and BIAevaluation v4.1 analysis software (Biacore, Piscataway, NJ) as previously described [51]. Briefly, the PH domain GST-fusion proteins were immobilized on a CM5 Sensorchip (Biacore BR-1000-12) using Biacore's Amine Coupling Kit (Biacore BR-1000-50) to a level of 10,000 Response units (RUs). Small molecule analytes at concentrations ranging from one tenth to ten times the predicted K D were injected at a high flow rate (30 µL/min). Dimethylsulfoxide (DMSO) concentrations in all samples and running buffer were 1% (v/v) or less. For the competitive binding assays and K i determination, PtdIns(3,4,5)P3-biotin labeled liposomes (Echelon Biosciences, Salt Lake City, UT) and SA chips were used with increasing concentrations of the compound tested. We did triplicate SPR assays for each concentration.

MDA-MB-231 = test: Cellular proliferation (MTT) assay, MDA-MB-231; format: cell-based, human; details: for IC50: 4 days growth, MTT, IA = Inactive; for toxicity to MDA-MB-231 at 100 µM: data not shown
Method: (§1) T47D and MDA-MB-231 cells were maintained in bulk culture in Dulbecco's modified Eagle medium (DMEM) supplemented with 10% heat-inactivated fetal bovine serum (FBS), 4.5 g/L glucose, 100 U/mL penicillin and […] streptomycin in a 5% CO2 atmosphere. MCF-10A cells were maintained in MEGM with other conditions same as the cancer cell lines. […] Cells were confirmed to be mycoplasma free by testing them with an ELISA kit (Roche-Boehringer Mannheim, Indianapolis, IN). Our hit compounds were freshly prepared in DMSO at a stock concentration of 10 mM. For the evaluation of cellular proliferation, a standard 96-well micro-cytotoxicity assay was performed as described in reference. Briefly, the assay was set up by plating cells at 5,000–10,000 cells per well (depending on cell doubling time) for a growth period of 4 days. The identified hits were added directly to the media, dissolved in DMSO at various concentrations ranging from 1 to 200 µM. The endpoint was spectrophotometric determination of the reduction of 3-(4,5-dimethylthiazol-2-yl)-2,5-diphenyltetrazolium bromide. All assays were performed in triplicates.

human GAB1 PH domain [1] = target: T2, human GAB1 PH domain (Homo sapiens, UniProt Q13480); test: SPR direct binding to GAB1 PH domain; details: for Kd: read-out: KD GAB1; for Kd / KD GAB1: SPR, immobilized PH domain GST-fusion, NB = No Binding; for Exp. ΔGbind: GAB1, derived from experimental KD (or Ki)
T2 sequence (Q13480 5-116 limits assumed): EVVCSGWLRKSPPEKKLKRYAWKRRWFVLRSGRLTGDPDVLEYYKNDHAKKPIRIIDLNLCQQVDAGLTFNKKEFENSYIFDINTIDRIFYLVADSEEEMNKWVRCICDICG
Method: as §3

T47D = test: Cellular proliferation (MTT) assay, T47D; format: cell-based, human; details: for IC50: 4 days growth, MTT, IA = Inactive; for toxicity to T47D at 100 µM: data not shown
Method: as §1

MDA-MB-468 cell line = test: Cellular proliferation assay, MDA-MB-468; format: cell-based; details: cell marked ** in MDA-MB-231 column: MDA-MB-468 cell line used
Method: (§2) Two human breast cancer cell lines and one normal breast cell line were used for this study: T47D ductal breast epithelial tumor cell line, MDA-MB-231 epithelial tumor cell line and MCF-10A non-tumorigenic epithelial cell line (American Type Culture Collection, Rockville, MD). T47D and MDA-MB-231 cells were maintained in bulk culture in Dulbecco's modified Eagle medium (DMEM) supplemented with 10% heat-inactivated fetal bovine serum (FBS), 4.5 g/L glucose, 100 U/mL penicillin and […] streptomycin in a 5% CO2 atmosphere. MCF-10A cells were maintained in MEGM with other conditions same as the cancer cell lines. Cells were passaged using 0.25% trypsin and 0.02% EDTA. Cells were confirmed to be mycoplasma free by testing them with an ELISA kit (Roche-Boehringer Mannheim, Indianapolis, IN). Our hit compounds were freshly prepared in DMSO at a stock concentration of 10 mM. For the evaluation of cellular proliferation, a standard 96-well micro-cytotoxicity assay was performed as described in reference. Briefly, the assay was set up by plating cells at 5,000–10,000 cells per well (depending on cell doubling time) for a growth period of 4 days. The identified hits were added directly to the media, dissolved in DMSO at various concentrations ranging from 1 to 200 µM. […]

human GAB1 PH domain [2] = target: T2, human GAB1 PH domain; test: SPR competitive binding (PtdIns(3,4,5)P3-biotin liposomes), Ki, GAB1 PH domain; details: read-out: Ki GAB1, cells marked * (Ki measurement)
Method: as §3

MCF-10A = test: Cellular proliferation assay, MCF-10A non-tumorigenic cells; format: cell-based, human; details: data not shown
Method: as §2

GAB2 PH domain = GAB2 PH domain (Homo sapiens, UniProt Q9UQC2); test: Follow-up binding to GAB2 PH domain; details: follow-up experiments
[3] = SPR, immobilized PH domain GST-fusion, NB = No Binding

GAB2 PH domain, sequence (Q9UQC2 6-117 limits assumed): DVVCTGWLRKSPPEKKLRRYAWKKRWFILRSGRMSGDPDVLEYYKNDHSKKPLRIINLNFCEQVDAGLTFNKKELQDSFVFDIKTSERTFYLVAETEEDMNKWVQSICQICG

| SMILES | Kd (human IRS1 PH domain; [3]) [µM] | IC50 (MDA-MB-231) [µM] | Kd (human GAB1 PH domain [1]) [µM] | IC50 (T47D) [µM] | % pGAB1 inhibition (phospho-Tyr627 GAB1) [%] | also measured |
| --- | --- | --- | --- | --- | --- | --- |
| Cn1c(Cc2ccsc2)nnc1SCC(=O)Nc1cc(Cl)cc(Cl)c1 [GAB-011] | > 50 | > 200 | > 50 | > 200 | 24 |  |
| Cc1cc2ncc(-c3cnc(SCCS(=O)(=O)c4ccc(Cl)cc4)nc3)c(C)n2n1 [GAB-006] | > 50 |  | > 50 | 101 ± 1.8 | 16 |  |
| O=S(=O)(NCc1csc2ccc(Cl)cc12)c1cc(S(=O)(=O)c2ccccc2)cs1 [GAB-001] | > 50 | 40.3 ± 1.3 |  | 23.7 ± 2.7 | 55 | KD IRS1 (human IRS1 PH domain; [3]): not to IRS1 PH domain; Exp. ΔGbind (human GAB1 PH domain [1]): -6.91 kcal/mol; Ki (human GAB1 PH domain [2]): 9.4 µM and 9.38 µM |
| Cn1cnc(S(=O)(=O)Nc2ccccc2SCCS(=O)(=O)c2ccc(Cl)cc2)c1 [GAB-002] | 16.4 ± 4.3 | 143 ± 11.6 | 2.1 ± 0.1 | 138 ± 6.9 | 32 |  |
| CCCCCCCCCCCCc1ccc(S(=O)(=O)Nc2nnc(CC(=O)O)s2)cc1 [GAB-015] | 0.05 |  |  | 125 ± 5.4 | 77 | Ki (human GAB1 PH domain [2]): 13.1 ± 1.5 µM |
| O=c1[nH]nc(SCc2csc(-c3ccccc3)n2)n1Cc1ccco1 [GAB-004] | > 50 | 66.6 ± 4.6 | 2.2 ± 1.1 | 19.4 ± 2.9 | 81 | Exp. ΔGbind (human GAB1 PH domain [1]): -7.78 kcal/mol |
| CS(=O)(=O)CCSc1ncccc1C(=O)Sc1ccc(Cl)cc1Cl [GAB-007] | 1.6 ± 0.2 | 4.6 ± 0.7 | 42.3 ± 8.9 | 20.1 ± 4.3 | 53 | Exp. ΔGbind (human IRS1 PH domain): -7.93 kcal/mol; Exp. ΔGbind (human GAB1 PH domain [1]): -6.01 kcal/mol |
| O=C(O)c1ccccc1C(=O)Nc1ccccc1SCCS(=O)(=O)c1ccc(Cl)cc1 [GAB-012] | > 50 | > 200 | > 50 | 119 ± 3.6 | 43 | killing of MDA-MB-231 cells at 50 µM (MDA-MB-231): did not effectively kill; toxicity to MDA-MB-231 at 100 µM (MDA-MB-231): not for T47D and MDA-MB-231; toxicity to MCF-10A at 100 µM (MCF-10A): toxic; killing of T47D cells at 50 µM (T47D): did not effectively kill; toxicity to T47D at 100 µM (T47D): not for T47D and MDA-MB-231 |
| Cc1onc(-c2ccccc2)c1-c1nc(CSc2nc3ccccc3[nH]2)no1 [GAB-010] | 0.12 ± 0.02 | 66 ± 4.4 | > 50 | 23.8 ± 4.2 | 92 | Exp. ΔGbind (human IRS1 PH domain): -9.51 kcal/mol |
| CCCCCCCCCCCCc1ccc(S(=O)(=O)Nc2nnc(CC(=O)OCC)s2)cc1 [GAB-016] | 0.15 |  | 0.9 ± 0.1 |  |  | Exp. ΔGbind (human IRS1 PH domain): -9.38 kcal/mol; targeting of GAB2 PH domain (GAB2 PH domain): targets GAB2 PH domain as well; Exp. ΔGbind (human GAB1 PH domain [1]): -8.31 kcal/mol; KD GAB1 (human GAB1 PH domain [1]): nanomolar binding affinity |
| CCCCCCCCCCCCCCCCCCOC[C@H](COP(=O)(O)OC1C(O)[C@@H](O)C(O)C[C@H]1O)OC (stereo partly shown) [DPIEL, reference compound] |  |  | 2.8 |  | 72 |  |
| CCCCCCCCCCCCc1ccc(S(=O)(=O)Nc2nnc(C(=O)OCC)s2)cc1 [GAB-017] | 0.05 |  | 0.68 ± 0.03 |  |  | Exp. ΔGbind (human GAB1 PH domain [1]): -8.47 kcal/mol; KD GAB1 (human GAB1 PH domain [1]): nanomolar binding affinity |

More lines, main results first:

| Kd (human IRS1 PH domain; [3]) [µM] | IC50 (MDA-MB-231) [µM] | Kd (human GAB1 PH domain [1]) [µM] | IC50 (T47D) [µM] | SMILES | % pGAB1 inhibition (phospho-Tyr627 GAB1) [%] | also measured |
| --- | --- | --- | --- | --- | --- | --- |
| > 50 |  | > 50 | 178 ± 3.9 | Cc1nnc(NS(=O)(=O)c2ccc(NS(=O)(=O)c3ccc4ccccc4c3)cc2)s1 [GAB-014] | 42 | IC50 (MDA-MB-468 cell line): 69.9 ± 0.1 µM |
| 16.2 ± 1.7 | > 200 | > 50 | 43.2 ± 3.2 | O=S(=O)(NCc1csc(-c2cccs2)n1)c1ccc(N2CCOCC2)nc1 [GAB-008] | 8 |  |
| > 50 | > 200 | > 50 | > 200 | CS(=O)(=NS(=O)(=O)c1ccc(-c2ccccn2)s1)c1ccc(Cl)cc1 (stereo not shown) [GAB-005] | 6 |  |
| > 50 |  |  | 185 ± 2.5 | CCCCCCCCCCCCc1ccc(S(=O)(=O)Nc2nnc(S(N)(=O)=O)s2)cc1 [GAB-018] | 71 | killing of MDA-MB-231 cells at 50 µM (MDA-MB-231): did not effectively kill; killing of T47D cells at 50 µM (T47D): did not effectively kill; Ki (human GAB1 PH domain [2]): 36.6 ± 5 µM |
| > 50 | > 200 | > 50 | > 200 | COc1cc(NS(=O)(=O)c2ccc(NS(=O)(=O)c3c(C)noc3C)cc2)nc(OC)n1 [GAB-013] | 27 | killing of MDA-MB-231 cells at 50 µM (MDA-MB-231): did not effectively kill; toxicity to MDA-MB-231 at 100 µM (MDA-MB-231): not for T47D and MDA-MB-231; toxicity to MCF-10A at 100 µM (MCF-10A): toxic; killing of T47D cells at 50 µM (T47D): did not effectively kill; toxicity to T47D at 100 µM (T47D): not for T47D and MDA-MB-231 |
| > 50 | 163 ± 6 | > 50 | 97.6 ± 6.1 | Cc1noc(C)c1NC(=O)NCc1csc(-c2cccs2)n1 [GAB-009] | 38 |  |
|  |  | 1.33 |  | CCCCCCCCCCCCc1ccc(S(=O)(=O)Nc2nncs2)cc1 [GAB-020] | 87 |  |
|  |  |  | 39.4 ± 6.2 | CCc1ccc(C(=O)OC)cc1CSc1nnc(-c2ccc(C(F)(F)F)cc2)n1Cc1ccoc1 [GAB-019] | 91 |  |

— publication PMC4287437, “Novel Inhibitors Induce Large Conformational Changes of GAB1 Pleckstrin Homology Domain and Kill Breast Cancer Cells” (PLoS Computational Biology, 2015)
